# From patent publication US20070191492A1, “Method for suppressing lung tumorigenesis” (Sumitomo Chemical Company, Limited, priority 2003, published 2007)
# Test system: lung tumorigenesis
# Assay: multi-organ carcinogenesis model in rats: suppression of lung tumorigenesis (histopathological examination of lung)
# Format: in vivo, male F344 rat
# Details: for Frequency of Animals having Tumors, Adenoma (animals with tumor / animals in group) / Frequency of Animals having Tumors, Adenoma (percent) / Frequency of Animals having Tumors, Carcinoma (animals with tumor / animals in group) / Frequency of Animals having Tumors, Carcinoma (percent) / Frequency of Animals having Tumors, Sum of Tumors (animals with tumor / animals in group) / Frequency of Animals having Tumors, Sum of Tumors (percent) / Tumor Multiplicity, Carcinoma (average number of tumors per individual ± standard deviation) / Tumor Multiplicity, Adenoma (average number of tumors per individual ± standard deviation) / Tumor Multiplicity, Sum of Tumors (average number of tumors per individual ± standard deviation): lung, 23 weeks
# Description: With respect to the compound 1 (13α, 14α-epoxy-3β-methoxyserratan-21β-ol) obtained in Example 1, activities for suppressing or inhibiting lung tumorigenesis were measured using a multi-organ carcinogenesis model in rats.
# Diethylnitrosamine dissolved in saline was once administered interperitoneally to each male F344 rat at 6 weeks of age (Charles River Japan, Inc.) at a dose of 100 mg/kg body weight wherein this day was made to be day 1 of the testing. In succession, N-methyl-N-nitrosourea dissolved in saline was administered interperitoneally at a dose of 20 mg/kg body weight at day 4, 8, 11 and 15 of the testing (total four times of dosing). Furthermore, dimethylhydrazine dissolved in saline was administered subcutaneously at a dose of 40 mg/kg body weight at day 18, 22, 25, 29, 32 and 36 of the testing (total six times of dosing). In parallel with administration of these carcinogens, drinking water into which 0.05% N-butyl-N-(4-hydroxybutyl)nitrosamine was dissolved was allowed to ingest to the F344 rat from day 1 of the testing for the following four weeks. Thereafter, drinking water into which around 0.1% of 2, 2′-dihydroxy-di-n-propylnitrosamine was dissolved was allowed to ingest to the F344 rat for over two weeks from the beginning of week 5 to the end of week 6 of the testing. With respect to the F344 rat treated with a variety of carcinogens as described above, administration of the compound 1 was started from the beginning of week 8 of the testing. The compound 1 was dissolved into corn oil and forcibly administered orally into stomach using a sonde at a dose of 5 or 10 mg/kg body weight. The administration was implemented at a frequency of once a day, five days in a week, and continued for twenty three weeks. As a reference, untreated groups to which no compound 1 was administered were provided. After elapsed thirty weeks from starting the testing, each F344 rat had been sacrified to isolate a lung, and histopathological examination was conducted on the lung thus isolated. With respect to neoplastic lesions, they were classified into a benign or malignant lesion, and a number of animals each having a benign tumor or a malignant tumor and a number of tumors were counted in each group.
# [1] = 5 mg/kg orally once a day, five days a week, examined after 30 weeks
# [2] = treated group vs untreated group, in words
substance,measurement,setting,value
"13α, 14α-epoxy-3β-methoxyserratan-21β-ol [Compound 1]","Frequency of Animals having Tumors, Adenoma (animals with tumor / animals in group)",[1],11/20
same,"Frequency of Animals having Tumors, Adenoma (percent)",[1],55%
same,"Frequency of Animals having Tumors, Carcinoma (animals with tumor / animals in group)","5 mg/kg orally, P < 0.05",1/20
same,"Frequency of Animals having Tumors, Carcinoma (percent)","5 mg/kg orally, P < 0.05",5%
same,"Frequency of Animals having Tumors, Sum of Tumors (animals with tumor / animals in group)","5 mg/kg orally, P < 0.05",11/20
same,"Frequency of Animals having Tumors, Sum of Tumors (percent)","5 mg/kg orally, P < 0.05",55%
same,"Tumor Multiplicity, Carcinoma (average number of tumors per individual ± standard deviation)","5 mg/kg orally, P < 0.05",0.05 ± 0.22
same,"Tumor Multiplicity, Adenoma (average number of tumors per individual ± standard deviation)","5 mg/kg orally, p < 0.01",0.70 ± 0.80
same,"Tumor Multiplicity, Sum of Tumors (average number of tumors per individual ± standard deviation)","5 mg/kg orally, p < 0.01",0.75 ± 0.85
same,"Frequency of Animals having Tumors, Adenoma (animals with tumor / animals in group)",10 mg/kg orally,12/19
same,"Frequency of Animals having Tumors, Adenoma (percent)",10 mg/kg orally,67%
same,"Frequency of Animals having Tumors, Carcinoma (animals with tumor / animals in group)",10 mg/kg orally,5/19
same,"Frequency of Animals having Tumors, Carcinoma (percent)",10 mg/kg orally,28%
same,"Frequency of Animals having Tumors, Sum of Tumors (animals with tumor / animals in group)",10 mg/kg orally,13/19
same,"Frequency of Animals having Tumors, Sum of Tumors (percent)",10 mg/kg orally,72%
same,"Tumor Multiplicity, Carcinoma (average number of tumors per individual ± standard deviation)",10 mg/kg orally,0.29 ± 0.47
same,"Tumor Multiplicity, Adenoma (average number of tumors per individual ± standard deviation)","10 mg/kg orally, P < 0.05",1.00 ± 1.00
same,"Tumor Multiplicity, Sum of Tumors (average number of tumors per individual ± standard deviation)","10 mg/kg orally, P < 0.05",1.22 ± 1.06
same,frequency of animals each having tumor (adenoma or carcinoma) compared with the untreated group,[2],lower value
same,tumor multiplicity (adenoma or carcinoma) compared with the untreated group,[2],lower value
